In general, Ki refers to a measure of affinity in units of concentration, obtained from inhibition or displacement. As a reminder, the IC50 is the concentration that inhibits the measured activity by half. What is called GI50 is the concentration at which growth is held to half of that of the control. Low values mean more potent growth inhibition, high ones less potent growth inhibition.

Results on two compounds are retold here after PMC3086806, “Mining a Cathepsin Inhibitor Library for New Antiparasitic Drug Leads” (PLoS Neglected Tropical Diseases, 2011).

Data set [1] in a line: Jurkat cell cytotoxicity assay. As to conditions: human, Jurkat cells (clone E6-1), read-out: Cytotoxicity (% inhibition at 10 µM) Jurkat cells. It is filed as cell-based. Here is the method: Jurkat cells (clone E6-1) were grown in complete RPMI-1640 medium containing 10% FBS, 50 U/mL penicillin and 50 µg/mL streptomycin (Invitrogen) at 37°C under a humidified atmosphere and 5% CO2. For cytotoxicity testing, cells were diluted to 1×10^5 per ml in complete RPMI-1640 medium. Test compound stocks were prepared in 100% DMSO and screened at 10 µM against cells (1×10^4 cells per well) in sterile Greiner 96-well flat white opaque culture plates (0.5% final DMSO concentration). The 0% inhibition control wells contained 0.5% DMSO while 100% inhibition control wells contained 40 µM staurosporine. After compound addition, plates were incubated for 40 hr at 37°C. At the end of the incubation period, 50 µL of CellTiter-Glo™ reagent (Promega Inc., Madison, WI, USA) was added to each well and plates were placed on an orbital shaker at room temperature for 2 min to induce lysis. After a further 10 min incubation without shaking to stabilize the signal, the ATP-bioluminescence of each well was determined using an Analyst HT plate reader (Molecular Devices, Sunnyvale, CA, USA). Calculations of percentage inhibition and IC50 were performed similar to those in the T. brucei brucei assay.

For data set [2], the target named is human cathepsin B. Set-up: method as in data provided by Celera Genomics. The following applies: historical data; ref data provided by Celera Genomics; read-out: Ki catB; cited from earlier work.
The target of data set [3] is T1, rhodesain (Trypanosoma brucei rhodesiense, UniProt Q95PM0).
T1 construct: made in house
T1 sequence (Q95PM0 entry or part of it): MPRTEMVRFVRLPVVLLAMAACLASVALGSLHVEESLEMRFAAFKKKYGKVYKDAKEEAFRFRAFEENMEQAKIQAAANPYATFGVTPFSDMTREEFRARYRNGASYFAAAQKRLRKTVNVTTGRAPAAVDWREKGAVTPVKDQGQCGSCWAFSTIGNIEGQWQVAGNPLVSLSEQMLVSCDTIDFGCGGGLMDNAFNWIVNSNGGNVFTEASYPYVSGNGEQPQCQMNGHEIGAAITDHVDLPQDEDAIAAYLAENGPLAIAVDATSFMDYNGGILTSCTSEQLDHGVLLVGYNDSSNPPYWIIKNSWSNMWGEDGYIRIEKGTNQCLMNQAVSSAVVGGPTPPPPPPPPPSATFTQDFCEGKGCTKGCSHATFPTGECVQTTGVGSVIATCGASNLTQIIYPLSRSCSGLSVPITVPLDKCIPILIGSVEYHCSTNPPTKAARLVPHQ
The data set can be described thus: Rhodesain protease inhibition assay (Z-Phe-Arg-AMC). The format is biochemical. As to conditions: for Fold more potent inhibition of rhodesain than TbCatB: rhodesain vs TbCatB IC50. The protocol:
(§1) Recombinant cruzain, rhodesain, TbCatB, falcipain-2 and falcipain-3 were expressed as described previously, [39], [40], [41], [42]. Inhibitor stock solutions were prepared in DMSO and screened at 0.1 µM for cruzain and rhodesain, 1 µM for TbCatB and 50 nM for falcipain-3 (0.5% DMSO in assay). […] Protease inhibition assays for cruzain and rhodesain were carried out in 96 well plate format as described previously. Cruzain (4 nM), rhodesain (4 nM) or TbCatB (258 nM) was incubated with test compound in 100 mM sodium acetate, pH 5.5, containing 5 mM DTT and 0.01% Triton X-100 (buffer A), for 5 min at room temperature (the higher concentration of TbCatB was required due to its lower intrinsic activity against the fluorogenic substrate). Then buffer A containing Z-Phe-Arg-AMC (Bachem) was added to enzyme-compound mixture to give 10 µM substrate in a final assay volume of 200 µL. The rate of free AMC release was measured at excitation and emission wavelengths of 355 and 460 nm, respectively, with a microtiter plate spectrofluorimeter (SpectraMax M5, Molecular Devices) for 3 min. Percentage inhibition of test compound was calculated relative to the DMSO control (0% inhibition control). IC50 values were determined with Prism 4 software (GraphPad, San Diego, CA) using sigmoidal dose-response variable slope model.

The target of data set [4] is T2, falcipain-3 (Plasmodium falciparum, UniProt Q8IIL0).
T2 construct: made in house
T2 sequence (Q8IIL0 243-492): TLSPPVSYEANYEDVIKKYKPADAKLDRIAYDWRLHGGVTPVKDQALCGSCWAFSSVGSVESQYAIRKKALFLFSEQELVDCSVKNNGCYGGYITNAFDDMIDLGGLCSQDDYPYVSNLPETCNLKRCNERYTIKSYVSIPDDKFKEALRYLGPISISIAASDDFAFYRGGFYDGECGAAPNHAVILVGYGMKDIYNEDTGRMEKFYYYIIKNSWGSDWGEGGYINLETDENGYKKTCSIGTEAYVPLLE
Description: Falcipain-3 protease inhibition assay (Z-Leu-Arg-AMC). It is filed as biochemical. The following applies: read-out: IC50 falcipain-3. The protocol: as §1
Protease inhibition assays for falcipain-2 and falcipain-3 were carried out in 96 well plate format as described previously, [43] with modification for end-point readout. Falcipain-2 (21 nM) or falcipain-3 (78 nM) was incubated with test compound for 10 min at room temperature in 200 mM sodium acetate, pH 6, 10 mM DTT and 3.6% glycerol and 0.01% Triton X-100 (buffer B). Then buffer B containing Z-Leu-Arg-AMC (Bachem) was added to the enzyme-compound mixture to give 25 µM substrate in a final assay volume of 200 µL. After 15 min, 50 µL of 5 M acetic acid was added to each well to stop the reaction. End-point fluorescence was read in a spectrofluorimeter as above. The 0% inhibition control wells contained DMSO while 100% inhibition control wells contained 50 µM E-64 (Sigma). Percentage inhibition of test compound was calculated relative to the controls and IC50 curve fitting was performed with Prism 4 software as above.

Data set [5] deals with T. brucei brucei clone 427-221a bloodstream forms. Description: T. brucei brucei growth inhibition assay. It is filed as cell-based. The following applies: Trypanosoma brucei; 40 hours. Here is the method: The growth inhibition assay for T. brucei brucei was conducted as described previously. Bloodstream forms of the monomorphic T. brucei brucei clone 427-221a were grown in complete HMI-9 medium containing 10% FBS, 10% Serum Plus medium (Sigma Inc. St. Louis Mo. USA), 50 U/mL penicillin and 50 µg/mL streptomycin (Invitrogen) at 37°C under a humidified atmosphere and 5% CO2. […] 5 µL of each dilution was added to 95 µL of diluted parasites (1×10^4 cells per well) in sterile Greiner 96-well flat white opaque culture plates such that the final DMSO concentration was 0.5%. The 0% inhibition control wells contained 0.5% DMSO while 100% inhibition control wells contained 50 µM thimerosal (Sigma). After compound addition, plates were incubated for 40 hours at 37°C. At the end of the incubation period, 50 µL of CellTiter-Glo™ reagent (Promega Inc., Madison, WI, USA) was added to each well and plates were placed on an orbital shaker at room temperature for 2 min to induce lysis. After an additional 10 min incubation without shaking to stabilize the signal, the ATP-bioluminescence of each well was determined using an Analyst HT plate reader (Molecular Devices, Sunnyvale, CA, USA). Raw values were converted to log10 and percentage inhibition calculated relative to the controls. IC50 curve fittings were performed with Prism 4 software as above.

Data set [6] concerns the target T3, TbCatB (Trypanosoma brucei, UniProt Q6R7Z5).
T3 construct: made in house
T3 sequence (Q6R7Z5 23-340): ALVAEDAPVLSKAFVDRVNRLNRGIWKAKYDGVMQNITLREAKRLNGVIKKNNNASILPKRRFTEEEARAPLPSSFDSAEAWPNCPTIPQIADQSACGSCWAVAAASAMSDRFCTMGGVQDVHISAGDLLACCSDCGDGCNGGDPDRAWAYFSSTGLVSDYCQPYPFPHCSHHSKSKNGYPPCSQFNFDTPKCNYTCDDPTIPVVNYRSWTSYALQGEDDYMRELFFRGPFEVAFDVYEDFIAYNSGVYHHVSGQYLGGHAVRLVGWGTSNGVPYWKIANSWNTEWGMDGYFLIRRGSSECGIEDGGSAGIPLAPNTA
Description: TbCatB protease inhibition assay (Z-Phe-Arg-AMC). The format is biochemical. Here is the method: as §1

In the case of `CCCCC(NC(=O)C(Cc1ccccc1)NC(=O)N1CCOCC1)C(=O)c1nc2ccccc2o1` (centres unmarked) [Compound 19b], in data set [1], the cytotoxicity at 40 h, 10 µM is less than 5%. The Ki in data set [2] is 42 nM. For the same compound, the IC50 in data set [3] stood at 1 nM; in data set [4] it was 4.9 nM; in data set [6], 600 nM. In addition, the “Fold more potent inhibition of rhodesain than TbCatB” value in data set [3] was roughly 1000 fold. The compound also registered a GI50 in data set [5] greater than 25000 nM.
Consider `CCCCC(NC(=O)C(CC(C)C)NC(=O)N1CCOCC1)C(=O)c1nc2ccccc2o1` (centres unmarked) [Compound 19a], for which, in data set [1], the cytotoxicity at 40 h, 10 µM was less than 5%. Further, the Ki in data set [2] was 125 nM. Further, the IC50 in data set [3] worked out at 1 nM; in data set [4], 8.3 nM; in data set [6], 1000 nM. Moreover, in data set [3], the “Fold more potent inhibition of rhodesain than TbCatB” value is recorded as roughly 1000 fold. Further, the GI50 in data set [5] is greater than 25000 nM.
